Assay results published in ChEMBL document CHEMBL3421598, “Structure-activity relationships of the prototypical TRPM8 agonist icilin” (Bioorg Med Chem Lett, 2015).

Tests used:
Assay type in all cases: cell-based
[1] = biological target: T1, Transient receptor potential cation channel subfamily M member 8 (Rattus norvegicus, UniProt Q8R455); test: Antagonist activity against rat TRPM8 expressed in HEK293 cells assessed as inhibition of icilin-induced intracellular Ca2+ level pre-treated 5 mins before icilin stimulation by Fluo-4-AM dye based spectrofluorimetry
[2] = biological target: Transient receptor potential cation channel subfamily V member 1 (Homo sapiens, UniProt Q8NER1); test: Antagonist activity against human TRPV1 expressed in HEK293 cells assessed as inhibition of capsaicin-induced intracellular Ca2+ level pre-treated 5 mins before capsaicin stimulation by Fluo-4-AM dye based spectrofluorimetry
[3] = biological target: T1, Transient receptor potential cation channel subfamily M member 8; test: Agonist activity at rat TRPM8 expressed in HEK293 cells assessed as induction of intracellular Ca2+ level by Fluo-4-AM dye based spectrofluorimetry
[4] = biological target: Transient receptor potential cation channel subfamily M member 8 (Rattus norvegicus) (UniProt Q8R455); test: Agonist activity at rat TRPM8 expressed in HEK293 cells assessed as induction of intracellular Ca2+ level by Fluo-4-AM dye based spectrofluorimetry relative to 4 uM ionomycin
Chain of Transient receptor potential cation channel subfamily M member 8 (Rattus norvegicus) (Q8R455 whole entry, looked up): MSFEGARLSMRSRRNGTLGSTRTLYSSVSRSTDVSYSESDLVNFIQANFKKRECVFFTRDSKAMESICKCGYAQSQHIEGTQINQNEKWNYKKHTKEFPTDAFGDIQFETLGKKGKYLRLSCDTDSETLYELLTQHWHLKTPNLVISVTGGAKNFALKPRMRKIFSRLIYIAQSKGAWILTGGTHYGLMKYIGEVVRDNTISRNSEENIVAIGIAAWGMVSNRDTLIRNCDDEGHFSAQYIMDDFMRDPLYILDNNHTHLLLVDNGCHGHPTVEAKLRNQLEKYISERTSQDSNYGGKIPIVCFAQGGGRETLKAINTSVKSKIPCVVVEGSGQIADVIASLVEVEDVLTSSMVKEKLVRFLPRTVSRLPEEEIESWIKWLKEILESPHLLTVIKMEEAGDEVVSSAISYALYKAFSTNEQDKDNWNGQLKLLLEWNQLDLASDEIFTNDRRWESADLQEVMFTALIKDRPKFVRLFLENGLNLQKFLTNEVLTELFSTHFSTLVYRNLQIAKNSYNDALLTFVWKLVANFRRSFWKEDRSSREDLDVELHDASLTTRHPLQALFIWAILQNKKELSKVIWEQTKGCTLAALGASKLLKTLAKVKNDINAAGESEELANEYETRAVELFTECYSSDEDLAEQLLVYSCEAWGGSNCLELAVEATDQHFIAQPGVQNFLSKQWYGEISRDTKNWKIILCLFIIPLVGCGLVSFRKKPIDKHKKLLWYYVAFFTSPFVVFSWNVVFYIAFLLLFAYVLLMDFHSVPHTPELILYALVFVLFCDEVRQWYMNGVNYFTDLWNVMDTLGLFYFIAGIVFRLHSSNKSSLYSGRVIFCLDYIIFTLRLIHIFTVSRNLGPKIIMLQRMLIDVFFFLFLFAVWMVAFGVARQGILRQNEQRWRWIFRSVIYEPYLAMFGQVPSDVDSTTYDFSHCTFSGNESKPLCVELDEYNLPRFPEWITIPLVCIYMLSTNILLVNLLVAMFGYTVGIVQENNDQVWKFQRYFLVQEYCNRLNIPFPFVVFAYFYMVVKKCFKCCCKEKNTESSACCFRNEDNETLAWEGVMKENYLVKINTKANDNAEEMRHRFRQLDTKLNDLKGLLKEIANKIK

Chain of Transient receptor potential cation channel subfamily V member 1 (Q8NER1 whole entry): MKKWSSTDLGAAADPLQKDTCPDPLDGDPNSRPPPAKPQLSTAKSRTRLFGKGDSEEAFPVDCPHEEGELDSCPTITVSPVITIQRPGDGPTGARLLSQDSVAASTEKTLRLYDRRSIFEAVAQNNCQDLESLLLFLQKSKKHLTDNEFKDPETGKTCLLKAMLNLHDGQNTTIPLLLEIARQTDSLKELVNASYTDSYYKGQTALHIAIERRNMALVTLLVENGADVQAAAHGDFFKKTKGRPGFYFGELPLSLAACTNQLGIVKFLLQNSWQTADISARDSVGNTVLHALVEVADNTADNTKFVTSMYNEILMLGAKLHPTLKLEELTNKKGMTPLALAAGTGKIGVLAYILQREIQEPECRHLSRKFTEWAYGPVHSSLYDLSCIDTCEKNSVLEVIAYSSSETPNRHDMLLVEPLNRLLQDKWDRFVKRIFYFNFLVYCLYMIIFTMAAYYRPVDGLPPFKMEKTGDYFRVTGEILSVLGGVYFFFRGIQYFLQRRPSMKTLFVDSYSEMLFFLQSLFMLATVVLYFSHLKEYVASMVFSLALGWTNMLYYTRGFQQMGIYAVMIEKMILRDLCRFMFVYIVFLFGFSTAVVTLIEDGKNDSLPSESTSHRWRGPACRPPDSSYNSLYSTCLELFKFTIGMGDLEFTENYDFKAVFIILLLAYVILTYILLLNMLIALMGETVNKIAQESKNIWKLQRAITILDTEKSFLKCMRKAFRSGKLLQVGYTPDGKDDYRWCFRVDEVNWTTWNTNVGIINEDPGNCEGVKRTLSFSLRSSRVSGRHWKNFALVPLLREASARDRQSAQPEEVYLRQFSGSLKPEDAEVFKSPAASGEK
T1 sequence (Q8R455 whole entry): as the sequence (Q8R455 whole entry, looked up) above

Compound	IC50 [1] [µM]	IC50 [2] [µM]	EC50 [3] [µM]	Efficacy [4] [%]
NC(=O)c1ccccc1N1CC=C(c2cccc([N+](=O)[O-])c2)NC1=O	8.3	–	15.4	47.2
O=C1NC(c2cccc([N+](=O)[O-])c2)=CCN1c1cccc(Br)c1	1.5	–	0.6	47
CS(=O)(=O)Nc1cccc(-n2cc(-c3cccc([N+](=O)[O-])c3)[nH]c2=O)c1	26	–	–	< 10
COc1cccc(-n2cc(-c3cccc([N+](=O)[O-])c3)[nH]c2=O)c1	33.9	–	–	< 10
Cc1ccc(O)c(N2CC=C(c3ccc([N+](=O)[O-])cc3)NC2=O)c1	16.9	–	–	< 10
O=C1NC(c2ccc([N+](=O)[O-])cc2)=CCN1c1ccccc1O	5.7	–	–	< 10
NC(=O)c1ccccc1N1CC=C(c2ccc([N+](=O)[O-])cc2)NC1=O	11.4	–	–	< 10
O=C(/C=C/c1cccc([N+](=O)[O-])c1)Nc1cccc(I)c1	0.073	1.2	–	–
O=C(/C=C/c1cccc([N+](=O)[O-])c1)Nc1ccccc1I	1.05	> 10	–	–
O=C1NC(c2cccc([N+](=O)[O-])c2)=CCN1c1cccc(O)c1	1.5	–	1.7	62
O=C(/C=C/c1cccc([N+](=O)[O-])c1)Nc1ccccc1O	1.9	> 10	–	–
O=c1[nH]c(-c2cccc([N+](=O)[O-])c2)cn1-c1ccccc1O	3.5	–	–	< 10
COc1ccccc1N1CC2=C(NC1=O)c1ccccc1CC2	6.6	–	–	< 10
O=C(/C=C/c1cccc([N+](=O)[O-])c1)Nc1ccccc1Br	1.5	> 10	–	–
CC1=C(c2cccc([N+](=O)[O-])c2)NC(=O)N(c2ccccc2O)C1	14.3	–	> 10	10.8
O=C1NC(c2cccc([N+](=O)[O-])c2)=CCN1c1cccc(Cl)c1	4.4	–	1.5	45.6
Cc1ccc(O)c(N2CC=C(c3cccc([N+](=O)[O-])c3)NC2=O)c1	0.26	–	0.14	69.4
O=C(/C=C/c1cccc([N+](=O)[O-])c1)Nc1cccc(Cl)c1	0.17	7.1	–	–
O=C1NC(c2cccc([N+](=O)[O-])c2)=CCN1c1ccc(O)cc1	11.3	–	–	< 10
O=C(/C=C/c1cccc([N+](=O)[O-])c1)Nc1ccccc1CO	> 10	> 10	–	–
O=C1NC(c2ccc([N+](=O)[O-])cc2)=CCN1c1ccc(O)cc1	11.4	–	–	< 10
O=C1NC2=C(CCc3c2cccc3[N+](=O)[O-])CN1c1ccccc1O	3.1	–	–	< 10
O=C1NC2=C(CCc3ccccc32)CN1c1ccccc1O	5.7	–	–	< 10
O=C1NC(c2cccc([N+](=O)[O-])c2)=CCN1c1ccccc1Br	1.03	–	0.62	48.2
Cc1ccc(N2CC=C(c3cccc([N+](=O)[O-])c3)NC2=O)c(O)c1	1.4	–	1.2	46

Results, then the compound that gave them:

IC50 [1] [µM]	IC50 [2] [µM]	EC50 [3] [µM]	Efficacy [4] [%]	Compound
0.17	4.1	–	–	CC(C)c1cccc(NC(=O)/C=C/c2cccc([N+](=O)[O-])c2)c1
1.1	2.1	–	–	COc1cccc(NC(=O)/C=C/c2cccc([N+](=O)[O-])c2)c1
22	–	–	< 10	CCNC(=O)c1ccccc1N1CC=C(c2cccc([N+](=O)[O-])c2)NC1=O
0.4	> 10	–	–	Cc1cccc(NC(=O)/C=C/c2cccc([N+](=O)[O-])c2)c1
3.2	–	1.2	52.7	O=C1NC(c2cccc([N+](=O)[O-])c2)=CCN1c1ccccc1I
6.1	> 10	–	–	CC(C)c1ccccc1NC(=O)/C=C/c1cccc([N+](=O)[O-])c1
1.8	10.7	–	–	COc1ccccc1NC(=O)/C=C/c1cccc([N+](=O)[O-])c1
68.4	–	–	< 10	COc1cccc(N2CC=C(c3cccc([N+](=O)[O-])c3)N(C)C2=O)c1
0.43	4.3	–	–	O=C(CCc1cccc([N+](=O)[O-])c1)Nc1cccc(I)c1
18.1	–	–	< 10	O=C1NC2=C(CCc3ccc([N+](=O)[O-])cc32)CN1c1ccccc1O
8.7	–	–	< 10	O=C1NC(c2cccc([N+](=O)[O-])c2)=CCN1c1ccccc1F
8.3	–	1.1	18.5	COc1ccccc1N1CC=C(c2cccc([N+](=O)[O-])c2)NC1=O
2	> 10	–	–	Cc1ccccc1NC(=O)/C=C/c1cccc([N+](=O)[O-])c1
1.7	> 10	–	–	O=C(/C=C/c1cccc([N+](=O)[O-])c1)Nc1ccccc1Cl
0.95	–	0.89	41.8	O=C1NC(c2cccc([N+](=O)[O-])c2)=CCN1c1ccccc1Cl
0.058	–	–	75.1	O=C1NC(c2cccc([N+](=O)[O-])c2)=CCN1c1ccccc1O [ICILLIN]
11.4	–	–	< 10	COc1ccccc1N1CC=C(c2ccc([N+](=O)[O-])cc2)NC1=O
6.5	6.1	–	–	O=C(/C=C/c1cccc([N+](=O)[O-])c1)Nc1cccc(CO)c1
15.7	–	–	< 10	O=C1NC(c2cccc([N+](=O)[O-])c2)=CCN1c1cccc(CO)c1
0.47	–	0.3	30.9	O=C1NC(c2cccc([N+](=O)[O-])c2)=CCN1c1cccc(I)c1
0.24	–	0.13	57.5	COc1cccc(N2CC=C(c3cccc([N+](=O)[O-])c3)NC2=O)c1
0.14	2.5	–	–	O=C(/C=C/c1cccc([N+](=O)[O-])c1)Nc1cccc(Br)c1
12	–	5	20.4	O=C1NC(c2cccc([N+](=O)[O-])c2)=CCN1c1ccccc1CO
40	–	–	< 10	COc1ccc(N2CC=C(c3cccc([N+](=O)[O-])c3)NC2=O)cc1
> 10	> 10	–	–	O=C(/C=C/c1cccc([N+](=O)[O-])c1)Nc1cccc(O)c1
> 10	> 10	–	–	CS(=O)(=O)Nc1ccccc1NC(=O)/C=C/c1cccc([N+](=O)[O-])c1
0.6	> 10	–	–	CC(C)(C)c1cccc(NC(=O)/C=C/c2cccc([N+](=O)[O-])c2)c1
46.4	–	–	< 10	CS(=O)(=O)Nc1cccc(N2CC=C(c3cccc([N+](=O)[O-])c3)NC2=O)c1
10.9	–	–	< 10	O=C1NC(c2ccc([N+](=O)[O-])cc2)=CCN1c1cccc(O)c1
